Results on 4 compounds are retold here after ChEMBL document CHEMBL1201862, “PubChem BioAssay data set” (2004).

Active and inactive are the calls of the source.

The target of one assay is CAAX prenyl protease 2 (Saccharomyces cerevisiae S288c, UniProt Q03530). Type of assay: biochemical.
Assay [1] deals with BJ. Put plainly: BJ-TERT fibroblast viability loss – cell-based, RAS-independent, luminescence, dose response (AID 1933). Type of assay: functional. Conditions: Homo sapiens.
Assay [2] is described as follows: toxicity toward cultured mammalian cells – cell-based, plate reader, cherry-pick samples, cytotoxicity control, dose response (AID 504397). In kind it is functional.
The subject of assay [3] is BJ. Briefly: cells. Type of assay: functional, cell-based. As to conditions: Homo sapiens.
The nature of assay [4]: DRD fibroblast viability loss – cell-based, non-viral oncogenic, luminescence, dose response (AID 1934). Type of assay: functional. Conditions: Homo sapiens.
The subject of assay [5] is BJ. Put plainly: BJ-TERT-LT-ST fibroblast viability loss – cell-based, RAS-independent, luminescence, dose response (AID 1935).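 Also: BJ fibroblasts immortalized with TERT plus LT and ST oncogenes.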 In kind it is functional. Conditions: Homo sapiens.
Assay [6] has as its target Delta-type opioid receptor (Homo sapiens, UniProt P41143). Put plainly: SAR Analysis of Agonists of the DOR Receptor using an Image-Based Assay - Set 3. [Related pubchem assays (depositor defined):AID1777, AID1786]. In kind it is functional.
The target of assay [7] is T1, Kappa-type opioid receptor (Homo sapiens, UniProt P41145). Put plainly: SAR analysis of small molecule agonists of the kappa opioid receptor via a luminescent beta-arrestin assay - Set 3. [Related pubchem assays (depositor defined):AID1777, AID1785, AID1786, AID1966, AID2133, AID2136, AID2284, AID2500]. Type of assay: functional.
For the next assay, the target named is Mu-type opioid receptor (Homo sapiens, UniProt P35372). Briefly: SAR Analysis of Agonists of the MOR Receptor using an Image-Based Assay - Set 3. [Related pubchem assays (depositor defined):AID1777, AID1785, AID1786, AID1966, AID2133, AID2136, AID2284, AID2285, AID2352]. Type of assay: functional.
Assay [8] concerns the target T1, Kappa-type opioid receptor. Briefly: kappa opioid receptor activation by imaging – image-based, set 3, SAR follow-up (AID 488833). Type of assay: functional.
Assay [9] deals with T2, SUMO-activating enzyme (Homo sapiens, UniProt Q9UBT2). Put plainly: blockers of UBC9-mediated SUMO conjugation – biochemical, AlphaScreen, SUMOylation inhibitor project, confirmation (AID 2018). Type of assay: functional. On the technique in general: Alpha assays give light when donor and acceptor beads are brought close together.
Assay [10] addresses T2, SUMO-activating enzyme. Put plainly: blockers of SAE1/SAE2–UBC9 SUMO transfer – biochemical, HTRF, uHTS, primary screen (AID 2006). Type of assay: protein-complex assay. Background: TR-FRET usually uses a lanthanide donor and a delayed reading to cut background.
The target of the next assay is T3, Bcl-2-related protein A1 (Mus musculus, UniProt Q07440).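 Also: confirmatory dose–response counterscreen on Bfl-1, used to check hits from a UBC13 polyubiquitin inhibitor campaign.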
T3 sequence (Q07440 whole entry): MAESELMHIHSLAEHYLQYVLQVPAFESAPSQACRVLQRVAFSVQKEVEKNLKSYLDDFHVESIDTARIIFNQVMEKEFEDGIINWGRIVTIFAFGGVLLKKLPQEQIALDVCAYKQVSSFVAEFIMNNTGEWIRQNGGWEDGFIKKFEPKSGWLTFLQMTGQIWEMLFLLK
In kind it is functional.

A short description of assay [11]: Luminescence Cell-Based Dose Retest to Confirm Inhibitors of Cancer Stem Cells. [Related pubchem assays (depositor defined):AID2717, AID2721]. In kind it is functional. Conditions: Homo sapiens.
In assay [12] the target is T4, Ubiquitin-conjugating enzyme E2 N (Homo sapiens, UniProt P61088).
T4 sequence (P61088 whole entry): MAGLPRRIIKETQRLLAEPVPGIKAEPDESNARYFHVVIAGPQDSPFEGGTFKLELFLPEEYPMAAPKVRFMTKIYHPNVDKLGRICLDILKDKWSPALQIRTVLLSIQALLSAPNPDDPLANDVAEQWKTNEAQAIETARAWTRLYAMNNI
In kind it is functional.

The subject of another assay is INS1. Put plainly: INS-1E survival protection against cytokine death – cell-based, luminescence, retest, dose response (AID 449756).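 Also: cell death triggered by IL-1 beta plus TNF-alpha plus IFN-gamma mixture; protective hits raise ATP signal compared with cytokine alone wells.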 In kind it is functional. Conditions: Rattus norvegicus.
The target of assay [13] is T4, Ubiquitin-conjugating enzyme E2 N. Type of assay: functional. The source holds these as a separate data set.
Assay [14] can be described thus: microbe, parasite or virus in culture. Type of assay: functional. As to conditions: Mycobacterium tuberculosis.

One may read the AC50 as the concentration at which the activity in the assay is half-maximal. The EC50 is the concentration needed to bring the measured effect to its halfway point. Usually IC50 stands for the concentration at which inhibition is half-maximal.

T2 sequence (Q9UBE0 whole entry): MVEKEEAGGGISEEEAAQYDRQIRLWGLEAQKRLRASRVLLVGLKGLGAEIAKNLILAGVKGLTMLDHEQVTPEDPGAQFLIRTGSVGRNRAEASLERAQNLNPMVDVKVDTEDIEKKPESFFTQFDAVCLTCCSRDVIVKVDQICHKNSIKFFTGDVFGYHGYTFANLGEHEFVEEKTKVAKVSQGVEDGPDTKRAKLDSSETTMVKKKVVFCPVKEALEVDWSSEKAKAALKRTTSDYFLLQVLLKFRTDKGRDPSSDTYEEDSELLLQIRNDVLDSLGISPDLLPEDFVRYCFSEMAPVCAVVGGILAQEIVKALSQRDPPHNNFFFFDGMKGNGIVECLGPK
T2 sequence (Q9UBT2 whole entry): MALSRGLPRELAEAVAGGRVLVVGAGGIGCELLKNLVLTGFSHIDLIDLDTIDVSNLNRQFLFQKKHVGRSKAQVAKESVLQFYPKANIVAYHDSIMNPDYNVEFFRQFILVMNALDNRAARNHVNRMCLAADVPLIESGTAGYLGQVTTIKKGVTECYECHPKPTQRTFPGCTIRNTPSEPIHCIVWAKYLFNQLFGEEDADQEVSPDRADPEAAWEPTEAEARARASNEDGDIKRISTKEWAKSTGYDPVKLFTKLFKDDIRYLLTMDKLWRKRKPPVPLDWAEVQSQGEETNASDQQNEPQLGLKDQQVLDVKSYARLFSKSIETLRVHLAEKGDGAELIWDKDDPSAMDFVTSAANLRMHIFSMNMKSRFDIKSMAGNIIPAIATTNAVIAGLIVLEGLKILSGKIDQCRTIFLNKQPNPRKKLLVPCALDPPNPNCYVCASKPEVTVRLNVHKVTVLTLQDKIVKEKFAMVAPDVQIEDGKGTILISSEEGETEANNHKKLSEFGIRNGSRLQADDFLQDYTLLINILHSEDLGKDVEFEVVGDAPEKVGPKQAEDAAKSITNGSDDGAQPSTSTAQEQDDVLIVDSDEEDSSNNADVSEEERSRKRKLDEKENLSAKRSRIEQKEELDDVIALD
T1 sequence (P41145 whole entry): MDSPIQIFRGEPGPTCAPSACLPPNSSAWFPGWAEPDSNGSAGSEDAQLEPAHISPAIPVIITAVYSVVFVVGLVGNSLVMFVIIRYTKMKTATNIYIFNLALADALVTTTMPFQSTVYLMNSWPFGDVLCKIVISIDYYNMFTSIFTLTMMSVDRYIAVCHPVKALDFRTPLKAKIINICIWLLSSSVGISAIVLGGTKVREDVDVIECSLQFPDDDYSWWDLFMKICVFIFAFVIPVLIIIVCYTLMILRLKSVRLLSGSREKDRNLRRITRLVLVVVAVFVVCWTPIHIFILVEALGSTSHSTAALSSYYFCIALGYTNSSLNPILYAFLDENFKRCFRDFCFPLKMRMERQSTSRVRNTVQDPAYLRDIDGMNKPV
Chain of Delta-type opioid receptor (P41143 whole entry): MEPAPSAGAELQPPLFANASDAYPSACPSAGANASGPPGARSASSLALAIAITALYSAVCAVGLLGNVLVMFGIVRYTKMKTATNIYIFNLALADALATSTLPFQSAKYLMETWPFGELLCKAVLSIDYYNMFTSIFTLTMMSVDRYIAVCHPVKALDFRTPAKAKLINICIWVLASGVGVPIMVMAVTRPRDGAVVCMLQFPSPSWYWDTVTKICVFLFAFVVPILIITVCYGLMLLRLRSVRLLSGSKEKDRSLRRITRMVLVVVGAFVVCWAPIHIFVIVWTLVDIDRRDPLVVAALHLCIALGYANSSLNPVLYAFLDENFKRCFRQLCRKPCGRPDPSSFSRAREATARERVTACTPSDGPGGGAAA
Chain of CAAX prenyl protease 2 (Q03530 whole entry): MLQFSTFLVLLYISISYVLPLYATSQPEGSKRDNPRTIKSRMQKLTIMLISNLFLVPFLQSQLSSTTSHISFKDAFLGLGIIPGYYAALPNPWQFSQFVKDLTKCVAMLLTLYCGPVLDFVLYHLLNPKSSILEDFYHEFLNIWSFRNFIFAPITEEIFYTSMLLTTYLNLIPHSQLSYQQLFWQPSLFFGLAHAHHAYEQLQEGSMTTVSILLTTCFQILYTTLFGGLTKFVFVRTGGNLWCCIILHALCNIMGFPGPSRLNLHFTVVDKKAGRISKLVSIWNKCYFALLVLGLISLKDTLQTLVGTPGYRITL
Chain of Mu-type opioid receptor (P35372 whole entry): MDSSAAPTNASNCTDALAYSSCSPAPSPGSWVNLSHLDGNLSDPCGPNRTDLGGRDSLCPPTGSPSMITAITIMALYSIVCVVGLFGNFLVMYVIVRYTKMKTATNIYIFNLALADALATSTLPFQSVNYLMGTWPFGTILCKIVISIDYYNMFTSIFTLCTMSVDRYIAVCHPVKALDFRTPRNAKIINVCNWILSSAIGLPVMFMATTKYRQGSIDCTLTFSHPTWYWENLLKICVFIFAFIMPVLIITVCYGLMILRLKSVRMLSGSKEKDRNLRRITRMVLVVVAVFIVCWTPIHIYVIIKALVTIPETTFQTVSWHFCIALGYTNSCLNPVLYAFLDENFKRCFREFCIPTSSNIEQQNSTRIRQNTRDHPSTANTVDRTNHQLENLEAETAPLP

As to `Cc1cccc(OCCCN2C(=O)C(=O)c3cc(C)ccc32)c1`, the AC50 at CAAX prenyl protease 2 is 2.77 µM (active); in assay [2], 42.4 µM (active). For the same compound, the EC50 was 5.08 µM (active) in the assay with BJ [1], > 150 µM (not active) with BJ [3], 25.9 µM (active) in assay [4] and 11.1 µM (inconclusive) in the assay on BJ [5].
Take `FC(F)(F)c1cc(CSc2nnc(-c3ccccn3)n2Cc2ccco2)ccc1Cl`: the EC50 in assay [6] was > 64 µM (inactive); in assay [7], 0.504 µM (active); at Mu-type opioid receptor it was > 32 µM (inactive); in assay [8] it was 0.456 µM (active).
For `COc1cccc2c(SCC(=O)N/N=C/c3ccc(O)cc3O)cc(C)nc12`, the results for the concentration for half-maximal inhibition (IC50) at SUMO-activating enzyme [9] and at SUMO-activating enzyme [10] were 3.17 µM (active) and 28.6 µM (active), respectively.
Turning to `COc1ccc2cc1Oc1ccc(cc1)C[C@H]1c3c(cc(OC)c4c3Oc3c(ccc5c3[C@H](C2)N(C)CC5)O4)CCN1C`, the results for the IC50 (at Bcl-2-related protein A1; in [12]; in assay [13]) were > 20 µM (inactive), 16 µM (active) and 12.2 µM (active), respectively. Moreover, the AC50 is 3.56 µM (active) in assay [11] and 8.02 µM (active) with INS1. Besides, the CC50 in assay [14] was 6.25 µM (active).
